Test results: patent publication US20260234161A1, “RIFABUTIN ANALOGS FOR THE TREATMENT OF BACTERIAL DISEASES” (BIOVERSYS AG, priority 2023, published 2026)
In brackets after ≈: the same amount, converted by molar mass. Like-named read-outs stand apart in the source and are kept apart here.

Key:
Type in all cases: cell-based
[1] = tested on: S. aureus (UAMS-1625 strain); assay: MIC by broth microdilution, S. aureus; details: Staphylococcus aureus, 20 h, read-out: MIC S. aureus
Procedure: (§1) MIC values were determined by broth microdilution method according to the CLSI guidelines with the following exceptions: MIC against A. baumannii was performed in RPMI medium supplemented with 10% FCS and MIC against M. abscessus was performed in Middlebrook 7H9 broth supplemented with Middlebrook ADC growth supplement (10%; see column “M. abscessus 7H9”). MIC forM abscessus was determined a second time in standard cation adjusted Mueller Hinton broth without growth supplement (see colum “M. abscessus MH”). All other MIC were performed in standard cation adjusted Mueller Hinton broth, supplemented with Middlebrook ADC growth supplement (5%) for the slow growing mycobacteria (M. xenopi, M. kansasii and M. avium).
(§2) The following procedure applies to all species tested, except forM xenopi. From a fresh culture plate (from overnight to several days depending on the bacteria), cells were resuspended in 0.9% (w/v) saline solution and bacterial inoculum was prepared in the respective testing medium with 5×10^5 CFU/mL. For M. xenopi, the inoculum was prepared from a fresh liquid culture (7H9+ADC). The appropriate volumes of a 10 mg/mL compound solution were directly dispensed in the 96-well assay plate using a digital dispenser to create two-fold dilution series from 32 to 0.002 μg/mL final concentration for A. baumannii and S. aureus; from 16 to 0.016 μg/mL for M. abscessus and M. avium; and from 1 to 6×10^−5 μg/mL for M. kansasii and M. xenopi. 100 μL of bacterial suspension was finally added to the compounds. Plates were covered and incubated without shaking at 35° C. for 20 hours for A. baumanii and S. aureus; at 30° C. for 4 days for M. abscessus; and at 37° C. for 7 days (at least) for M. kansasii (covered with aluminum foil to avoid light exposure), M. avium and M. xenopi. Every experiment contained an antibiotic as quality control. MIC was determined visually as the lowest concentration of a compound that prevents visible growth of the bacteria.
(§3) The in vitro activity of compounds described herein was determined against S. aureus (UAMS-1625 strain), A. baumannii (HUMC1 strain), M. abscessus (ATCC 19977), M. kansasii (ATCC 12478), M. avium (ATCC 25291), and M. xenopi (ATCC 19250).

[2] = tested on: A. baumannii (HUMC1 strain); assay: MIC by broth microdilution, A. baumannii (RPMI + 10% FCS); details: Acinetobacter baumannii, read-out: MIC A. baumannii
Procedure: as §1, §2, §3

[3] = tested on: M. abscessus (ATCC 19977); assay: MIC by broth microdilution, M. abscessus in Middlebrook 7H9 broth + ADC; details: Mycobacteroides abscessus
Procedure: as §1, §2, §3

[4] = tested on: M. abscessus (ATCC 19977); assay: MIC by broth microdilution, M. abscessus in cation adjusted Mueller Hinton broth; details: Mycobacteroides abscessus
Procedure: as §1, §2, §3

M. kansasii (ATCC 12478) = assay: MIC by broth microdilution, M. kansasii; details: Mycobacterium kansasii, ATCC12478, 168 h, cation adjusted Mueller Hinton broth + ADC (5%), 37° C., 7 days (at least)
Procedure: as §1, §2, §3

M. xenopi (ATCC 19250) = assay: MIC by broth microdilution, M. xenopi; details: Mycobacterium xenopi, ATCC19250, 168 h, cation adjusted Mueller Hinton broth + ADC (5%), 37° C., 7 days (at least)
Procedure: as §1, §2, §3

M. avium (ATCC 25291) = assay: MIC by broth microdilution, M. avium; details: Mycobacterium avium, ATCC25291, 168 h, cation adjusted Mueller Hinton broth + ADC (5%), 37° C., 7 days (at least)
Procedure: as §1, §2, §3

[5] = HUMC1 strain, RPMI medium + 10% FCS, 35° C., 20 hours
[6] = ATCC19977, 96 h, ATCC 19977, Middlebrook 7H9 broth + ADC growth supplement (10%), 30° C., 4 days, read-out: MIC M. abscessus 7H9
[7] = ATCC19977, 96 h, ATCC 19977, cation adjusted Mueller Hinton broth without growth supplement, 30° C., 4 days, read-out: MIC M. abscessus MH

Compound	MIC [1]	MIC [2, 5]	MIC [3, 6]	MIC [4, 7]	MIC (M. kansasii (ATCC 12478))	MIC (M. xenopi (ATCC 19250))	MIC (M. avium (ATCC 25291))	MIC ([2]; 20 h)	MIC ([3]; ATCC19977, 96 h, read-out: MIC M. abscessus 7H9)	MIC ([4]; ATCC19977, 96 h, read-out: MIC M. abscessus MH)	MIC ([3]; ATCC19977, 7H9 broth, read-out: MIC value against M. abscessus in 7H9 broth)	MIC ([4]; ATCC19977, Mueller Hinton broth, read-out: MIC value against M. abscessus in Mueller Hinton broth)
CO[C@H]1/C=C/O[C@@]2(C)Oc3c(C)c(O)c4c(c3C2=O)C2=NC3(CCN(CC(C)C)CC3)NC2=C(NC(=O)/C(C)=C\C=C\[C@H](C)[C@H](O)[C@@H](C)[C@@H](O)[C@@H](C)[C@H](OC(=O)N2CCC(c3ccccc3)CC2)[C@@H]1C)C4=O [Compound 1]	0.5 µg/mL (≈ 0.504 µM)	0.25 µg/mL	0.125 µg/mL	0.5 µg/mL (≈ 0.504 µM)	0.004 µg/mL	0.03 µg/mL	0.125 µg/mL					
CO[C@H]1/C=C/O[C@@]2(C)Oc3c(C)c(O)c4c(c3C2=O)C2=NC3(CCN(CC(C)C)CC3)NC2=C(NC(=O)/C(C)=C\C=C\[C@H](C)[C@H](O)[C@@H](C)[C@@H](O)[C@@H](C)[C@H](OC(=O)N2CCC(c3ccncc3)CC2)[C@@H]1C)C4=O [Compound 2]	0.125 µg/mL (≈ 0.126 µM)	0.016 µg/mL	0.125 µg/mL	0.25 µg/mL (≈ 0.252 µM)	0.0005 µg/mL	0.002 µg/mL	0.06 µg/mL					
CO[C@H]1/C=C/O[C@@]2(C)Oc3c(C)c(O)c4c(c3C2=O)C2=NC3(CCN(CC(C)C)CC3)NC2=C(NC(=O)/C(C)=C\C=C\[C@H](C)[C@H](O)[C@@H](C)[C@@H](O)[C@@H](C)[C@H](OC(=O)N2CCC(N(C)c3ccccc3)CC2)[C@@H]1C)C4=O [Compound 4]	0.5 µg/mL (≈ 0.49 µM)	0.125 µg/mL	0.25 µg/mL	1 µg/mL (≈ 0.979 µM)	0.002 µg/mL	0.016 µg/mL	0.25 µg/mL					
CO[C@H]1/C=C/O[C@@]2(C)Oc3c(C)c(O)c4c(c3C2=O)C2=NC3(CCN(CC(C)C)CC3)NC2=C(NC(=O)/C(C)=C\C=C\[C@H](C)[C@H](O)[C@@H](C)[C@@H](O)[C@@H](C)[C@H](OC(=O)N2CCN(c3ccccc3)CC2)[C@@H]1C)C4=O [Compound 7]	0.5 µg/mL (≈ 0.503 µM)	0.125 µg/mL	0.125 µg/mL	0.5 µg/mL (≈ 0.503 µM)	0.001 µg/mL	0.008 µg/mL	0.25 µg/mL					
CO[C@H]1/C=C/O[C@@]2(C)Oc3c(C)c(O)c4c(c3C2=O)C2=NC3(CCN(CC(C)C)CC3)NC2=C(NC(=O)/C(C)=C\C=C\[C@H](C)[C@H](O)[C@@H](C)[C@@H](O)[C@@H](C)[C@H](OC(=O)N2CCCN(c3ccccn3)CC2)[C@@H]1C)C4=O [Compound 15]	0.06 µg/mL (≈ 0.0595 µM)	0.008 µg/mL	0.5 µg/mL	1 µg/mL (≈ 0.992 µM)								
CO[C@H]1/C=C/O[C@@]2(C)Oc3c(C)c(O)c4c(c3C2=O)C2=NC3(CCN(CC(C)C)CC3)NC2=C(NC(=O)/C(C)=C\C=C\[C@H](C)[C@H](O)[C@@H](C)[C@@H](O)[C@@H](C)[C@H](OC(=O)N2CCCN(c3ccc(F)cc3)CC2)[C@@H]1C)C4=O [Compound 16]	0.25 µg/mL (≈ 0.244 µM)	0.03 µg/mL	1 µg/mL	2 µg/mL (≈ 1.95 µM)								
CO[C@H]1/C=C/O[C@@]2(C)Oc3c(C)c(O)c4c(c3C2=O)C2=NC3(CCN(CC(C)C)CC3)NC2=C(NC(=O)/C(C)=C\C=C\[C@H](C)[C@H](O)[C@@H](C)[C@@H](O)[C@@H](C)[C@H](OC(=O)N2CCN(Cc3ccccc3)CC2)[C@@H]1C)C4=O [Compound 17]	0.25 µg/mL (≈ 0.248 µM)							0.125 µg/mL	0.125 µg/mL	1 µg/mL (≈ 0.993 µM)		
CO[C@H]1/C=C/O[C@@]2(C)Oc3c(C)c(O)c4c(c3C2=O)C2=NC3(CCN(CC(C)C)CC3)NC2=C(NC(=O)/C(C)=C\C=C\[C@H](C)[C@H](O)[C@@H](C)[C@@H](O)[C@@H](C)[C@H](OC(=O)N2CCC3(CCN(C)CC3)CC2)[C@@H]1C)C4=O [Compound 21]	0.06 µg/mL (≈ 0.06 µM)	≤ 0.016 µg/mL		2 µg/mL (≈ 2 µM)	0.125 µg/mL	0.25 µg/mL	0.5 µg/mL					
CCCCN1CCC(NC(=O)O[C@H]2[C@H](C)[C@H](O)[C@H](C)[C@@H](O)[C@@H](C)/C=C/C=C(/C)C(=O)NC3=C4NC5(CCN(CC(C)C)CC5)N=C4c4c(c(O)c(C)c5c4C(=O)[C@@](C)(O/C=C/[C@H](OC)[C@H]2C)O5)C3=O)CC1 [Compound 30]	0.06 µg/mL (≈ 0.0608 µM)	≤ 0.016 µg/mL		0.5 µg/mL (≈ 0.506 µM)	0.016 µg/mL	0.06 µg/mL	0.125 µg/mL					
CCCCN1CCN(C(=O)O[C@H]2[C@H](C)[C@H](O)[C@H](C)[C@@H](O)[C@@H](C)/C=C/C=C(/C)C(=O)NC3=C4NC5(CCN(CC(C)C)CC5)N=C4c4c(c(O)c(C)c5c4C(=O)[C@@](C)(O/C=C/[C@H](OC)[C@H]2C)O5)C3=O)CC1 [Compound 50]	0.125 µg/mL (≈ 0.128 µM)	0.03 µg/mL		0.25 µg/mL (≈ 0.257 µM)	0.008 µg/mL	0.008 µg/mL	0.125 µg/mL					
CO[C@H]1/C=C/O[C@@]2(C)Oc3c(C)c(O)c4c(c3C2=O)C2=NC3(CCN(CC(C)C)CC3)NC2=C(NC(=O)/C(C)=C\C=C\[C@H](C)[C@H](O)[C@@H](C)[C@@H](O)[C@@H](C)[C@H](OC(=O)N2CCN(CC3CC3)CC2)[C@@H]1C)C4=O [Compound 56]	0.125 µg/mL (≈ 0.129 µM)	≤ 0.016 µg/mL		0.25 µg/mL (≈ 0.257 µM)	0.004 µg/mL	0.008 µg/mL	0.06 µg/mL					
CO[C@H]1/C=C/O[C@@]2(C)Oc3c(C)c(O)c4c(c3C2=O)C2=NC3(CCN(CC(C)C)CC3)NC2=C(NC(=O)/C(C)=C\C=C\[C@H](C)[C@H](O)[C@@H](C)[C@@H](O)[C@@H](C)[C@H](OC(=O)N2CCC(NC(C)C)CC2)[C@@H]1C)C4=O [Compound 63]	0.06 µg/mL (≈ 0.0617 µM)	≤ 0.016 µg/mL		2 µg/mL (≈ 2.06 µM)	0.125 µg/mL	0.25 µg/mL	0.5 µg/mL					
CO[C@H]1/C=C/O[C@@]2(C)Oc3c(C)c(O)c4c(c3C2=O)C2=NC3(CCN(CC(C)C)CC3)NC2=C(NC(=O)/C(C)=C\C=C\[C@H](C)[C@H](O)[C@@H](C)[C@@H](O)[C@@H](C)[C@H](OC(=O)N2C[C@H]3CN(CC5CCCCC5)C[C@H]3C2)[C@@H]1C)C4=O [Compound 67]	1 µg/mL (≈ 0.962 µM)	0.06 µg/mL		0.125 µg/mL (≈ 0.12 µM)	0.003 µg/mL	0.004 µg/mL	0.016 µg/mL					
CO[C@H]1/C=C/O[C@@]2(C)Oc3c(C)c(O)c4c(c3C2=O)C2=NC3(CCN(CC(C)C)CC3)NC2=C(NC(=O)/C(C)=C\C=C\[C@H](C)[C@H](O)[C@@H](C)[C@@H](O)[C@@H](C)[C@H](OC(=O)N2CCC3(CCN(CC5CCCCC5)CC3)CC2)[C@@H]1C)C4=O [Compound 72]	0.25 µg/mL (≈ 0.231 µM)	0.06 µg/mL		0.25 µg/mL (≈ 0.231 µM)	0.0004 µg/mL	0.008 µg/mL	0.03 µg/mL					
CO[C@H]1/C=C/O[C@@]2(C)Oc3c(C)c(O)c4c(c3C2=O)C2=NC3(CCN(CC(C)C)CC3)NC2=C(NC(=O)/C(C)=C\C=C\[C@H](C)[C@H](O)[C@@H](C)[C@@H](O)[C@@H](C)[C@H](OC(=O)NC2CCN(C3CCCCC3)CC2)[C@@H]1C)C4=O [Compound 77]	0.06 µg/mL (≈ 0.0592 µM)	≤ 0.016 µg/mL		1 µg/mL (≈ 0.987 µM)	0.03 µg/mL	0.06 µg/mL	0.25 µg/mL					
CO[C@H]1/C=C/O[C@@]2(C)Oc3c(C)c(O)c4c(c3C2=O)C2=NC3(CCN(CC(C)C)CC3)NC2=C(NC(=O)/C(C)=C\C=C\[C@H](C)[C@H](O)[C@@H](C)[C@@H](O)[C@@H](C)[C@H](OC(C)=O)[C@@H]1C)C4=O [Rifabutin, rifabutin]	0.016 µg/mL (≈ 0.0189 µM)	≤ 0.002 µg/mL	8 µg/mL	16 µg/mL (≈ 18.9 µM)							8 µg/mL	16 µg/mL (≈ 18.9 µM)
